From paper PMC12102759 (Protein Science : A Publication of the Protein Society, 2025)

Tests used:
NSP9 = NSP9 (Severe acute respiratory syndrome coronavirus 2, UniProt P0DTC1); type: binding, SARS‐CoV‐2
NSP3 UBl1 = NSP3 UBl1 (Severe acute respiratory syndrome coronavirus 2, UniProt P0DTC1); type: binding, SARS‐CoV‐2
NSP3 SUD-M = NSP3 SUD-M (Severe acute respiratory syndrome coronavirus 2, UniProt P0DTC1); assay: biochemical; type: binding, SARS‐CoV‐2

Substance: NSSGLSIGTVFQSSSP
- PSSM value, position F11 of NSSGLSIGTVFQSSSP (NSP9): 0.004607
- PSSM value, position I7 of NSSGLSIGTVFQSSSP (NSP9): 0.3584
- PSSM value, position L5 of NSSGLSIGTVFQSSSP (NSP9): 0.5284
- PSSM value, position P16 of NSSGLSIGTVFQSSSP (NSP9): 0.0472
- PSSM value, position Q12 of NSSGLSIGTVFQSSSP (NSP9): 0.008402
- PSSM value, position S2 of NSSGLSIGTVFQSSSP (NSP9): 0.1505
- PSSM value, position S3 of NSSGLSIGTVFQSSSP (NSP9): 0.01233
- PSSM value, position S6 of NSSGLSIGTVFQSSSP (NSP9): 0.08225
- PSSM value, position S13 of NSSGLSIGTVFQSSSP (NSP9): 0.05519
- PSSM value, position S14 of NSSGLSIGTVFQSSSP (NSP9): 0.02572
- PSSM value, position S15 of NSSGLSIGTVFQSSSP (NSP9): 0.009443
- PSSM value, position T9 of NSSGLSIGTVFQSSSP (NSP9): 0.0231
- PSSM value, position V10 of NSSGLSIGTVFQSSSP (NSP9): 0.01201

Substance: GHSPADYLRFQDLVLR
- DMS PSSM value, P (position 4) (NSP16): 0.03004
- DMS PSSM value, column A (position 5) (NSP16): 0.5801
- DMS PSSM value, column D (position 6) (NSP16): 0.9437
- DMS PSSM value, column D (position 12) (NSP16): 0.8934
- DMS PSSM value, column F (position 10) (NSP16): 1
- DMS PSSM value, column G (position 1) (NSP16): 0.4974
- DMS PSSM value, column H (position 2) (NSP16): 0.3305
- DMS PSSM value, column L (position 8) (NSP16): 0.965
- DMS PSSM value, column L (position 13) (NSP16): 0.8766
- DMS PSSM value, column L (position 15) (NSP16): 0.9948
- DMS PSSM value, column Q (position 11) (NSP16): 1
- DMS PSSM value, column R (position 9) (NSP16): 0.07816
- DMS PSSM value, column S (position 3) (NSP16): 0.3438
- DMS PSSM value, column V (position 14) (NSP16): 0.9023
- DMS PSSM value, column Y (position 7) (NSP16): 1

Substance: PSDEGALLDQLYLALR
- PSSM value, column E (NSP3 UBl1): 0.9239
- PSSM value, column G (NSP3 UBl1): 0.163
- PSSM value, column Q (NSP3 UBl1): 0.8454
- PSSM value, column R (NSP3 UBl1): 0.000271
- PSSM value, column S (NSP3 UBl1): 0.00806
- PSSM value, column Y (NSP3 UBl1): 0.04994

Substance: Ac-QFTEENLHFVLYGVTPY-NH2 [PRDM14 D201N]
- effect of mutation on affinity, in words (NSP3 SUD-M): reduced affinity

Substance: Ac-QFTEEALHFVLYGVTPY-NH2 [PRDM14 D201A]
- effect of mutation on affinity, in words (NSP3 SUD-M): reduced affinity

Substance: EPGHSPADYLRFQDLV
- DMS PSSM value, P (position 2) (NSP16): 0
- DMS PSSM value, column A (position 7) (NSP16): 0
- DMS PSSM value, column D (position 8) (NSP16): 1
- DMS PSSM value, column D (position 14) (NSP16): 1
- DMS PSSM value, column F (position 12) (NSP16): 1
- DMS PSSM value, column G (position 3) (NSP16): 0
- DMS PSSM value, column H (position 4) (NSP16): 1
- DMS PSSM value, column L (position 10) (NSP16): 0
- DMS PSSM value, column L (position 15) (NSP16): 0
- DMS PSSM value, column P (position 6) (NSP16): 0
- DMS PSSM value, column Q (position 13) (NSP16): 1
- DMS PSSM value, column R (position 11) (NSP16): 1
- DMS PSSM value, column S (position 5) (NSP16): 0
- DMS PSSM value, column V (position 16) (NSP16): 1
- DMS PSSM value, column Y (position 9) (NSP16): 0

Substance: DEGALLDQLYLALRNF
- PSSM value, column E (NSP3 UBl1): 1
- PSSM value, column G (NSP3 UBl1): 0.00255
- PSSM value, column N (NSP3 UBl1): 0.0003155
- PSSM value, column Q (NSP3 UBl1): 0.001034
- PSSM value, column R (NSP3 UBl1): 0.0009557
- PSSM value, column Y (NSP3 UBl1): 0.8625

Substance: SGLSIGTVFQSSSPGG
- PSSM value, position F9 of SGLSIGTVFQSSSPGG (NSP9): 0
- PSSM value, position I5 of SGLSIGTVFQSSSPGG (NSP9): 1
- PSSM value, position L3 of SGLSIGTVFQSSSPGG (NSP9): 0
- PSSM value, position P14 of SGLSIGTVFQSSSPGG (NSP9): 0
- PSSM value, position Q10 of SGLSIGTVFQSSSPGG (NSP9): 0
- PSSM value, position S1 of SGLSIGTVFQSSSPGG (NSP9): 0
- PSSM value, position S4 of SGLSIGTVFQSSSPGG (NSP9): 0
- PSSM value, position S11 of SGLSIGTVFQSSSPGG (NSP9): 0
- PSSM value, position S12 of SGLSIGTVFQSSSPGG (NSP9): 0
- PSSM value, position S13 of SGLSIGTVFQSSSPGG (NSP9): 0
- PSSM value, position T7 of SGLSIGTVFQSSSPGG (NSP9): 0
- PSSM value, position V8 of SGLSIGTVFQSSSPGG (NSP9): 0
